Measured values as given in patent US20220000911A1, “COMBINATION OF GOLD COMPLEXES WITH OLAPARIB OR OTHER PARP1/2 INHIBITORS FOR USE IN THE TREATMENT OF CANCER RESISTANT TO SAID PARP1/2 INHIBITORS” (Varsity Pharmaceuticals Limited, priority 2020, published 2022).

What was measured:
[1] = tested on: wildtype A2780 ovarian cancer cells; experiment: CellTiter Glo proliferation inhibition, wild-type A2780 cells; type: cell-based; conditions: for IC50 / inhibition at 60 pM / inhibition at 0.00017 µM / inhibition at 0.00051 µM / inhibition at 0.00152 µM / inhibition at 0.00457 µM / inhibition at 0.01372 µM / inhibition at 0.04115 µM / inhibition at 0.12346 µM / inhibition at 0.37037 µM / inhibition at 10 µM / inhibition at 30 µM: Homo sapiens; for IC50: A2780; for inhibition at 60 pM / inhibition at 0.00017 µM / inhibition at 0.00051 µM / inhibition at 0.00152 µM / inhibition at 0.00457 µM / inhibition at 0.01372 µM / inhibition at 0.04115 µM / inhibition at 0.12346 µM / inhibition at 0.37037 µM / inhibition at 10 µM / inhibition at 30 µM / Mean Inhibition (n = 3): wildtype A2780; for inhibition at 60 pM: test conc. 0.06 nM; for inhibition at 60 pM / inhibition at 0.00017 µM / inhibition at 0.00051 µM / inhibition at 0.00152 µM / inhibition at 0.00457 µM / inhibition at 0.01372 µM / inhibition at 0.04115 µM / inhibition at 0.12346 µM / inhibition at 0.37037 µM / inhibition at 10 µM / inhibition at 30 µM: read-out: Mean Inhibition (n = 3); for inhibition at 0.00017 µM: test conc. 0.17 nM; for inhibition at 0.00051 µM: test conc. 0.51 nM; for inhibition at 0.00152 µM: test conc. 1.52 nM; for inhibition at 0.00457 µM: test conc. 4.57 nM; for inhibition at 0.01372 µM: test conc. 13.72 nM; for inhibition at 0.04115 µM: test conc. 41.15 nM; for inhibition at 0.12346 µM: test conc. 123.46 nM; for inhibition at 0.37037 µM: test conc. 370.37 nM; for inhibition at 10 µM: test conc. 10,000 nM; for inhibition at 30 µM: test conc. 30,000 nM; for Maximum inhibition observed in wild-type A2780 cells: concentration range 0.06 nM to 30,000 nM
Description: The A2780 cell line is an ovarian cancer cell line that was established from an ovarian endometroid adenocarcinoma tumour. […] It is commonly used as a model to observe the effects of, and test the potency of various chemicals, methods of delivery and treatments for ovarian cancer. […] The cells were diluted with culture medium and 40 μL of cell suspension (1000 cells/well) was added into each well of a 384-well cell culture plate. The plate was covered with a lid and left at room temperature without shaking for 30 minutes. The plate was then transferred to an incubator at 37° C. and 5% CO2 and left overnight. Test compounds were dissolved at a concentration of 30 mM in DMSO to create a stock solution. 45 μL of the stock solution was transferred to a 384 pp-plate. […] The plate was then spun at room temperature at 1,000 RPM for 1 minute. 40 nL of the diluted compound was then transferred from the compound source plate into the cell plate. The cell plate was then covered with a lid and placed in an incubator at 37° C. and 5% CO2 and left for 120 hours. 72 hours after treatment with the compound detection was conducted as discussed below. CellTiter Glo® reagents were thawed and equilibrated to room temperature. The cell plate was then removed from the incubator and equilibrated at room temperature for 15 minutes. 30 μL of the CellTiter Glo® reagents were then added into each well (at 1:1 to culture medium). The contents was mixed for 2 minutes on an orbital shaker to induce cell lysis and then the plates were allowed to incubate at room temperature for 30 minutes. Luminescence was then measured on an Envision reader (Perkin Elmer). The inhibition activity was calculated using the following formula: […]

[2] = tested on: olaparib resistant A2780 ovarian cancer cells; experiment: CellTiter Glo proliferation inhibition, olaparib resistant A2780 cells, single agents; type: cell-based; conditions: for IC50 / inhibition at 60 pM / inhibition at 0.00017 µM / inhibition at 0.00051 µM / inhibition at 0.00152 µM / inhibition at 0.00457 µM / inhibition at 0.01372 µM / inhibition at 0.04115 µM / inhibition at 0.12346 µM / inhibition at 0.37037 µM / inhibition at 10 µM / inhibition at 30 µM: Homo sapiens; for IC50: A2780; for inhibition at 60 pM / inhibition at 0.00017 µM / inhibition at 0.00051 µM / inhibition at 0.00152 µM / inhibition at 0.00457 µM / inhibition at 0.01372 µM / inhibition at 0.04115 µM / inhibition at 0.12346 µM / inhibition at 0.37037 µM / inhibition at 10 µM / inhibition at 30 µM / Mean Inhibition (n = 3): olaparib resistant A2780; for inhibition at 60 pM: test conc. 0.06 nM; for inhibition at 60 pM / inhibition at 0.00017 µM / inhibition at 0.00051 µM / inhibition at 0.00152 µM / inhibition at 0.00457 µM / inhibition at 0.01372 µM / inhibition at 0.04115 µM / inhibition at 0.12346 µM / inhibition at 0.37037 µM / inhibition at 10 µM / inhibition at 30 µM: read-out: Mean Inhibition (n = 3); for inhibition at 0.00017 µM: test conc. 0.17 nM; for inhibition at 0.00051 µM: test conc. 0.51 nM; for inhibition at 0.00152 µM: test conc. 1.52 nM; for inhibition at 0.00457 µM: test conc. 4.57 nM; for inhibition at 0.01372 µM: test conc. 13.72 nM; for inhibition at 0.04115 µM: test conc. 41.15 nM; for inhibition at 0.12346 µM: test conc. 123.46 nM; for inhibition at 0.37037 µM: test conc. 370.37 nM; for inhibition at 10 µM: test conc. 10,000 nM; for inhibition at 30 µM: test conc. 30,000 nM; for Maximum inhibition observed in olaparib resistant A2780 cells: concentration range 0.06 nM to 30,000 nM; for Resistance of the olaparib resistant cells to other PARPis: olaparib resistant A2780 cells
Description: A2780 ovarian cancer cells (wild-type “WT”) were cultured in RPMI 1640 Medium with 10% Fetal Bovine Serum (FBS).
To obtain cells resistant to olaparib, the cells were cultured in cell culture medium (RPMI 1640 Medium with 10% FBS) supplemented with 20 μM olaparib for one month in order to generate A2780 cells resistant to olaparib (“R”). After a month the cells were continuously cultured in the cell culture medium (RPMI 1640 Medium with 10% FBS) supplemented with 10 μM olaparib prior to use and for up to two months to maintain the resistance.
The cells were harvested from a flask into cell culture medium (RPMI 1640 Medium with 10% FBS) and then counted. The cells were diluted with culture medium and 40 μL of cell suspension (1000 cells/well) was added into each well of a 384-well cell culture plate. The plate was covered with a lid and left at room temperature without shaking for 30 minutes. The plate was then transferred to an incubator at 37° C. and 5% CO2 and left overnight.
Test compounds were dissolved at a concentration of 30 mM in DMSO to create a stock solution. 45 μL of the stock solution was transferred to a 384 pp-plate. […] The plate was then spun at room temperature at 1,000 RPM for 1 minute. 40 nL of the diluted compound was then transferred from the compound source plate into the cell plate. The cell plate was then covered with a lid and placed in an incubator at 37° C. and 5% CO2 and left for 120 hours. 72 hours after treatment with the compound detection was conducted as discussed below.
CellTiter Glo® reagents were thawed and equilibrated to room temperature. The cell plate was then removed from the incubator and equilibrated at room temperature for 15 minutes. 30 μL of the CellTiter Glo® reagents were then added into each well (at 1:1 to culture medium). The contents was mixed for 2 minutes on an orbital shaker to induce cell lysis and then the plates were allowed to incubate at room temperature for 30 minutes. Luminescence was then measured on an Envision reader (Perkin Elmer).
The inhibition activity was calculated using the following formula:
Inhibition (%)=100×(Lumvehicle−Lumsample)/(Lumvehicle−Lumblank),
where Lumvehicle is the luminescence of cells treated with 0.1% DMSO and Lumblank is cells in the culture medium.
The IC50 was calculated by fitting the curve using Xlfit (v5.3.1.3), equation 201: […]

IC50 [1] | IC50 [2] | SMILES | inhibition at 60 pM [1] | inhibition at 0.00017 µM [1] | inhibition at 0.00051 µM [1] | inhibition at 0.00152 µM [1] | inhibition at 0.00457 µM [1] | inhibition at 0.01372 µM [1] | inhibition at 0.04115 µM [1] | inhibition at 0.12346 µM [1] | inhibition at 0.37037 µM [1] | inhibition at 10 µM [1] | inhibition at 30 µM [1] | Maximum inhibition observed in wild-type A2780 cells [1] | Mean Inhibition (n = 3) ([1]; test conc. 1,111.11 nM) | Mean Inhibition (n = 3) ([1]; test conc. 3,333.33 nM) | inhibition at 60 pM [2] | inhibition at 0.00017 µM [2] | inhibition at 0.00051 µM [2] | inhibition at 0.00152 µM [2] | other results
2.09 µM | 17.3 µM | NC(=O)c1cccc2cn(-c3ccc([C@@H]4CCCNC4)cc3)nc12 [Niraparib, niraparib] | 0.39% | -3.72% | -0.34% | 0.03% | 0.18% | 0.97% | -0.46% | 3.18% | 12.3% | 66.2% | 73.3% | 75% | 25.03% | 48.63% | -1.98% | 0.32% | -2.36% | 2.95% | inhibition at 0.00457 µM [2]: -0.19%; inhibition at 0.01372 µM [2]: -1.43%; inhibition at 0.04115 µM [2]: 0.1%; inhibition at 0.12346 µM [2]: -0.8%; inhibition at 0.37037 µM [2]: -0.56%; inhibition at 10 µM [2]: 18.9%; inhibition at 30 µM [2]: 43.9%; Maximum inhibition observed in olaparib resistant A2780 cells [2]: 47%; Mean Inhibition (n = 3) ([2]; test conc. 1,111.11 nM): −1.37%; Mean Inhibition (n = 3) ([2]; test conc. 3,333.33 nM): 5.54%; Resistance of the olaparib resistant cells to other PARPis [2]: resistant
0.019 µM | 4.31 µM | Cn1ncnc1[C@H]1c2n[nH]c(=O)c3cc(F)cc(c23)N[C@@H]1c1ccc(F)cc1 [Talazoparib, talazoparib] | 0.69% | -0.65% | 2.86% | 6.64% | 23.4% | 35.8% | 46.3% | 56.3% | 64.5% | 77.6% | 78.9% | 80% | 71.38% | 76.54% | 5.28% | -0.08% | 6.18% | 2.33% | inhibition at 0.00457 µM [2]: 3.63%; inhibition at 0.01372 µM [2]: 4.9%; inhibition at 0.04115 µM [2]: -1.18%; inhibition at 0.12346 µM [2]: 2.95%; inhibition at 0.37037 µM [2]: 9.21%; inhibition at 10 µM [2]: 49%; inhibition at 30 µM [2]: 64.3%; Maximum inhibition observed in olaparib resistant A2780 cells [2]: 66%; Mean Inhibition (n = 3) ([2]; test conc. 1,111.11 nM): 15.45%; Mean Inhibition (n = 3) ([2]; test conc. 3,333.33 nM): 34.89%; Resistance of the olaparib resistant cells to other PARPis [2]: resistant
